Patent US11382915B2, “Treatment of focal segmental glomerulosclerosis with CCR2 antagonists” (CHEMOCENTRYX, INC., priority 2017, dated 2022)

What was measured:
CCR9 = molecular target: T1, CCR9 (Homo sapiens, UniProt P51686); assay: CCR9 Molt4 Serum Chemotaxis; type: cell-based; conditions: read-out: Potency (IC50), CCR9
T1 construct: cell lines that either endogenously expressed certain chemokine receptors; endogenous in cells; host or cells: Molt4
Experimental: (§1) Chemotaxis, calcium mobilization, and radio-ligand binding assays were conducted as previously described (Sullivan et al, 2013; Walters et al, 2010). Inhibition values (IC50) were calculated using non-linear regression with a one-site competition model (GraphPad Prism, GraphPad Software, La Jolla, Calif.). A2 values for assessment of potency in chemotaxis assays denotes the concentration of the antagonist required to right-shift by 2-fold the chemokine dose-response curve. […] Urinary albumin was measured by ELISA (Bethyl Labs, Montgomery, Tex.). Urinary and serum creatinine was measured by LC-MS/MS at ChemoCentryx. The urinary albumin excretion rate (UAER) was calculated as micrograms per 24 h. Blood urea nitrogen (BUN) was measured by Antech Diagnostics (Morrisville, N.C.). The albumin to creatinine ratio (ACR) was calculated as micrograms of albumin per milligram of creatinine.

CXCR2 = molecular target: T2, CXCR2 (Homo sapiens, UniProt P25025); assay: CXCR2 Neutrophil Calcium Mobilization; type: cell-based; conditions: read-out: Potency (IC50), CXCR2
T2 construct: Human monocytes and neutrophils were isolated from healthy volunteers; host or cells: primary human neutrophils
T2 sequence (P25025 whole entry): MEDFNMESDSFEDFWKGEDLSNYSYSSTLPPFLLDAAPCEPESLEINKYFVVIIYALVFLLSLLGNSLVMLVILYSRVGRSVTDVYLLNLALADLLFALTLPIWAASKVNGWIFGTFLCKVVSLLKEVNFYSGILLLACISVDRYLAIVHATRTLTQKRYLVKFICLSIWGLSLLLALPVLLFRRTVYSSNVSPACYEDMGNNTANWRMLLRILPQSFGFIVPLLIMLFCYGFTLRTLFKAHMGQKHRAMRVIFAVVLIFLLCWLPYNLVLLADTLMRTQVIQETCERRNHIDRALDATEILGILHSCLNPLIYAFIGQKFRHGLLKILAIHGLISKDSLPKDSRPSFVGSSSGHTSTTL
Experimental: as §1

CCR2 [1] = molecular target: T3, CCR2 (Homo sapiens, UniProt P41597); assay: CCR2 ThP1 Cell Chemotaxis; type: cell-based; conditions: read-out: Potency (IC50), CCR2
T3 construct: cell lines that either endogenously expressed certain chemokine receptors; host or cells: ThP1
T3 sequence (P41597 1-360 isoform P41597-2): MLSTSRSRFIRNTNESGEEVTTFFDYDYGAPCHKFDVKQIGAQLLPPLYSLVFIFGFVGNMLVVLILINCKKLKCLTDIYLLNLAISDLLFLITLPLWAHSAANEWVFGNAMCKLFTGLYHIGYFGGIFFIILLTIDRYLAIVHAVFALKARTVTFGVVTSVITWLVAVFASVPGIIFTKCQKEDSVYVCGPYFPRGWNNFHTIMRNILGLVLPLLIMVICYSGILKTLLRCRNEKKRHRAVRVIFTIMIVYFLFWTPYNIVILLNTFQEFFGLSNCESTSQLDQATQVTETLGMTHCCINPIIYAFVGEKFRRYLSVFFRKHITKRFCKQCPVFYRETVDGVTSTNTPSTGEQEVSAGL
Experimental: as §1

CCR8 = molecular target: T4, CCR8 (Homo sapiens, UniProt P51685); assay: 293-CCR8 Calcium Mobilization; type: cell-based; conditions: read-out: Potency (IC50), CCR8
T4 construct: expressed in transfected cells; host or cells: 293
T4 sequence (P51685 whole entry): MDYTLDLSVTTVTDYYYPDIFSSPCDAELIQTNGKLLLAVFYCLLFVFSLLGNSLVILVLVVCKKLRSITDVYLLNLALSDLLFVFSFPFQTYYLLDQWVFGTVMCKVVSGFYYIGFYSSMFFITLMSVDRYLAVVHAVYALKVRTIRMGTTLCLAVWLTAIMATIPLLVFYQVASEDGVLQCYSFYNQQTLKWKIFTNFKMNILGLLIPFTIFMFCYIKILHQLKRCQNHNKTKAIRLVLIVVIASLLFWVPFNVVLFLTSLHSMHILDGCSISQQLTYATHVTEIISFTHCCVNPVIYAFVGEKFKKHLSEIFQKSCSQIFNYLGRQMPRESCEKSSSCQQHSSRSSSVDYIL
Experimental: as §1

CCR7 = molecular target: T5, CCR7 (Homo sapiens, UniProt P32248); assay: CCR7 Activated Lymphocyte Calcium Mobilization; type: cell-based; conditions: read-out: Potency (IC50), CCR7
T5 construct: endogenous in cells
Experimental: as §1

[2] = test system: Adriamycin challenged mice; assay: Adriamycin induced FSGS model; type: in vivo; conditions: for UAER: Adriamycin nephropathy model, Compound 1 90 mg/kg s.c. once daily, RAAS blocker 5 mg/kg orally once daily
Experimental: These experiments were performed using female Balb/c mice (Jackson Laboratories, Bar Harbor, Me.). The mice were kept on standard chow and had free access to water. At age of 10 weeks, 7.5 mg/kg Adriamycin (Selleck Chemicals, Houston, Tex.) or saline (control) was injected via tail vein in isoflurane-anesthetized animals (day 0). […] The RAAS blocker Candesartan (AK Scientific, Union City, Calif.) and its vehicle were dosed orally once daily at 5 mg/kg, formulated in water. All dosing started 2 hours prior Adriamycin challenge. The mice were housed individually in metabolic cages for quantitative collection of urinary albumin and creatinine. Chemotaxis, calcium mobilization, and radio-ligand binding assays were conducted as previously described (Sullivan et al, 2013; Walters et al, 2010). Inhibition values (IC50) were calculated using non-linear regression with a one-site competition model (GraphPad Prism, GraphPad Software, La Jolla, Calif.). A2 values for assessment of potency in chemotaxis assays denotes the concentration of the antagonist required to right-shift by 2-fold the chemokine dose-response curve. […] Urinary albumin was measured by ELISA (Bethyl Labs, Montgomery, Tex.). Urinary and serum creatinine was measured by LC-MS/MS at ChemoCentryx. The urinary albumin excretion rate (UAER) was calculated as micrograms per 24 h. Blood urea nitrogen (BUN) was measured by Antech Diagnostics (Morrisville, N.C.). The albumin to creatinine ratio (ACR) was calculated as micrograms of albumin per milligram of creatinine. […] Adriamycin is an oncolytic antibiotic that induces proteinuria and glomerulosclerosis in rodents after a single infusion. […] The level of protection was equal to or better than that of RAAS blockade.

CCR2 [3] = molecular target: T6, CCR2 (Mus musculus, UniProt P51683); assay: Inhibition of radio-labeled mJE (CCL2) binding to WEHI-274 cells; conditions: WEHI-274 murine monocyte cell line endogenously expressing CCR2
T6 construct: WEHI-274 murine monocyte cell line that endogenously expresses CCR2; host or cells: WEHI-274.1
Experimental: as §1

CXCR3 = molecular target: T7, CXCR3 (Homo sapiens, UniProt P49682); assay: CXCR3 Activated Lymphocyte Calcium Mobilization; type: cell-based; conditions: read-out: Potency (IC50), CXCR3
T7 construct: endogenous in cells
Experimental: as §1

CCR10 = molecular target: T8, CCR10 (Homo sapiens, UniProt P46092); assay: 293-CCR10 Calcium Mobilization; type: cell-based; conditions: read-out: Potency (IC50), CCR10
T8 construct: expressed in transfected cells; host or cells: 293
Experimental: as §1

CXCR7 = molecular target: T9, CXCR7 (Homo sapiens, UniProt P25106); assay: 293-CXCR7 Radio-ligand Binding; conditions: read-out: Potency (IC50), CXCR7
T9 construct: expressed in transfected cells; host or cells: 293
T9 sequence (P25106 whole entry): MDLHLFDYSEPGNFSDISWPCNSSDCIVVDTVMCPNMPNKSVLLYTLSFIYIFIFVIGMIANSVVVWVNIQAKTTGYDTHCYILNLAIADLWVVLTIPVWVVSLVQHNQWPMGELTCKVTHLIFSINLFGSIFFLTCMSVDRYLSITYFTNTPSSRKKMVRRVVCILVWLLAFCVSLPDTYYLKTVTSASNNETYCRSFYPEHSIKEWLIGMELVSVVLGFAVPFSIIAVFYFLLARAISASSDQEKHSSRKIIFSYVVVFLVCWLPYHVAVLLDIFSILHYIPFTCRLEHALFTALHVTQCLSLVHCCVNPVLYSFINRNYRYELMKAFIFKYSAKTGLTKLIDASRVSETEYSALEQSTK
Experimental: as §1

CXCR6 = molecular target: T10, CXCR6 (Homo sapiens, UniProt O00574); assay: CXCR6 Activated Lymphocyte Buffer Chemotaxis; type: cell-based; conditions: read-out: Potency (IC50), CXCR6
T10 construct: endogenous in cells
T10 sequence (O00574 whole entry): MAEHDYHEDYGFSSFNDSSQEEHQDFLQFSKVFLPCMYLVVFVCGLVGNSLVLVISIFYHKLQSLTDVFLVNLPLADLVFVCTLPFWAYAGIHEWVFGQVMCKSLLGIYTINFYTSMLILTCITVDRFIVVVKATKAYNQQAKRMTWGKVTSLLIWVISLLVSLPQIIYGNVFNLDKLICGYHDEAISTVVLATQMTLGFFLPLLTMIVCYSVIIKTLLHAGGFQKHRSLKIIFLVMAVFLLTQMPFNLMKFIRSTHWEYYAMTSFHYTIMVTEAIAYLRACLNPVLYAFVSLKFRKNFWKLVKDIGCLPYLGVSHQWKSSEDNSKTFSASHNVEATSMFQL
Experimental: as §1

[4] = Mouse pharmacokinetic (PK) study; type: in vivo; conditions: male, 129s, plasma, sc, mice, single s.c. injection at 90 mg/kg, 24 hours post-dosing
Experimental: Blood was drawn at 0.5, 2, […], 4, 8, 12, and 24 hours post-dosing. Compound 1 drug level was analyzed by LC-MS/MS at ChemoCentryx with plasma samples.
To determine if Compound 1 was suitable for in vivo experiments, we analyzed its pharmacokinetic profile in mice.

C5aR = molecular target: T11, C5aR (Homo sapiens, UniProt P21730); assay: C5aR Neutrophil Calcium Mobilization; type: cell-based; conditions: read-out: Potency (IC50), C5aR
T11 construct: Human monocytes and neutrophils were isolated from healthy volunteers; host or cells: primary human neutrophils
T11 sequence (P21730 whole entry): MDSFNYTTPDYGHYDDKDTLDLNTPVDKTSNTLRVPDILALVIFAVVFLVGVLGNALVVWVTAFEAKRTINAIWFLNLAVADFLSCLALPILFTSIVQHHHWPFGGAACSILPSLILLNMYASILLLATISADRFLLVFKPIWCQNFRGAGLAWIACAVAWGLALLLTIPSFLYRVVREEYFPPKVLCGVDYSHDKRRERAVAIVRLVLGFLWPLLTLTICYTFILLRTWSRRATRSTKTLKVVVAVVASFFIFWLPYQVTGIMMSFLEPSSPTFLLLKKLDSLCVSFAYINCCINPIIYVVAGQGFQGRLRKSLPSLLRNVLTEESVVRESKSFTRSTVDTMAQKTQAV
Experimental: as §1

CCR3 = molecular target: T12, CCR3 (Homo sapiens, UniProt P51677); assay: 293-CCR3 Calcium Mobilization; type: cell-based; conditions: read-out: Potency (IC50), CCR3
T12 construct: expressed in transfected cells; host or cells: 293
T12 sequence (P51677 whole entry): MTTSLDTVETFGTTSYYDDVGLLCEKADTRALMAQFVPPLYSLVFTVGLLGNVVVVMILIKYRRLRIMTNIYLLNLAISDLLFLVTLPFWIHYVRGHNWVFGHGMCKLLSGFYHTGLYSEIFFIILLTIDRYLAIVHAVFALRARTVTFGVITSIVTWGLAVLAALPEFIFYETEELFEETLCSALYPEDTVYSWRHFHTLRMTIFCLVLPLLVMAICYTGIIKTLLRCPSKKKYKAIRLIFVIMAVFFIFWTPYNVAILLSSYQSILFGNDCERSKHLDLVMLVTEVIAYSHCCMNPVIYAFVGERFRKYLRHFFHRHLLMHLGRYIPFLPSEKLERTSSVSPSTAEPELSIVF
Experimental: as §1

CCR4 = molecular target: T13, CCR4 (Homo sapiens, UniProt P51679); assay: CCR4 Activated Lymphocyte Calcium Mobilization; type: cell-based; conditions: read-out: Potency (IC50), CCR4
T13 construct: endogenous in cells
T13 sequence (P51679 whole entry): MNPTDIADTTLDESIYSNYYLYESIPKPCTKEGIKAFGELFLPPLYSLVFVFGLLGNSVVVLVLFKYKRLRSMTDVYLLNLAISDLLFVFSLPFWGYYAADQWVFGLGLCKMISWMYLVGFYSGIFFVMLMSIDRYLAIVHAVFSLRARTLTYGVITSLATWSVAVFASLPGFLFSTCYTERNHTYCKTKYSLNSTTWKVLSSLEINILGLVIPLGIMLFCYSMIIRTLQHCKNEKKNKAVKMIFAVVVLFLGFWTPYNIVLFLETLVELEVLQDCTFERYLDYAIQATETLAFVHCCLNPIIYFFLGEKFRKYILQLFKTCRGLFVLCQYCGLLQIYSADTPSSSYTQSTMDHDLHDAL
Experimental: as §1

[5] = test system: partially nephrectomized mice; assay: 5/6 nephrectomy model; type: in vivo; design: reduction in UACR / UACR reduction vs vehicle: concentration or dose not given beside the values; conditions: for UACR reduction vs vehicle: 5/6 nephrectomy model (Example 7, FIG. 8), week one; for reduction in UACR: mono-therapy
Experimental: (§2) 5/6 nephrectomy mice on the 129X1/SvJ background were obtained from Jackson Laboratories, and were received at ChemoCentryx after the surgery was performed at JAX. Under isoflurane anesthesia, two-thirds of the left kidney mass was removed at 5-6 weeks of age. Then, after 7 to 10 days, a right unilateral nephrectomy was performed. The mice were fed a standard chow and had free access to water. Three weeks after the 5/6 nephrectomy, the mice were grouped to ensure a similar starting UAER in each treatment group. […] The RAAS blocker candesartan (AK Scientific, Union City, Calif.) and its vehicle were dosed orally once daily at 5 mg/kg formulated in water. Sparsentan, the dual-acting receptor antagonist for endothelin (A type) and angiotensin II receptors (Type 1) (Murugesan et al, 2005) was synthesized at ChemoCentryx and was dosed orally twice daily at 90 mg/kg formulated in 1% HPMC. The mice were housed individually in metabolic cages for quantitative collection of urinary albumin and creatinine.
as §1
To corroborated the above findings, another FSGS model mechanistically distinct from the Adriamycin approach was tested, the 5/6 nephrectomy model. Beginning three weeks after the completion of surgery, the mice were treated with Compound 1 or RAAS blocker either alone or in combination. As above, renal function was quantified by measuring the UACR, UAER serum creatinine and BUN levels.

CXCR4 = molecular target: T14, CXCR4 (Homo sapiens, UniProt P61073); assay: CXCR4 Activated Lymphocyte Calcium Mobilization; type: cell-based; conditions: read-out: Potency (IC50), CXCR4
T14 construct: endogenous in cells
Experimental: as §1

C3aR = molecular target: T15, C3aR (Homo sapiens, UniProt Q16581); assay: C3aR Neutrophil Calcium Mobilization; type: cell-based; conditions: read-out: Potency (IC50), C3aR
T15 construct: Human monocytes and neutrophils were isolated from healthy volunteers; host or cells: primary human neutrophils
T15 sequence (Q16581 whole entry): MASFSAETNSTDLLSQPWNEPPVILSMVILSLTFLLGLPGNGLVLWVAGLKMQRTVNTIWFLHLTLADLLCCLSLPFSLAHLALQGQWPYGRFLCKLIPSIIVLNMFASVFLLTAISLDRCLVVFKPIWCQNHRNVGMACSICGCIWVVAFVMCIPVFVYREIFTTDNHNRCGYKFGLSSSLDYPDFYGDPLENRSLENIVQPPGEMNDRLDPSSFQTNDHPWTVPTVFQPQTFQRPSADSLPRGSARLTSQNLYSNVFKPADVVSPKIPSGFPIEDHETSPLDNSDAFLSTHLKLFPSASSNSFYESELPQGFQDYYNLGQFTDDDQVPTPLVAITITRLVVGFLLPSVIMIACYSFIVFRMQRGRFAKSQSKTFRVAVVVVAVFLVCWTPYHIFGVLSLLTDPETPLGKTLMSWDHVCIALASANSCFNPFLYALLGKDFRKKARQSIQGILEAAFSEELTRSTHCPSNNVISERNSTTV
Experimental: as §1

CCR1 = molecular target: T16, CCR1 (Homo sapiens, UniProt P32246); assay: CCR1 Monocyte Chemotaxis; type: cell-based; conditions: read-out: Potency (IC50), CCR1
T16 construct: Human monocytes and neutrophils were isolated from healthy volunteers; host or cells: primary human monocytes
T16 sequence (P32246 whole entry): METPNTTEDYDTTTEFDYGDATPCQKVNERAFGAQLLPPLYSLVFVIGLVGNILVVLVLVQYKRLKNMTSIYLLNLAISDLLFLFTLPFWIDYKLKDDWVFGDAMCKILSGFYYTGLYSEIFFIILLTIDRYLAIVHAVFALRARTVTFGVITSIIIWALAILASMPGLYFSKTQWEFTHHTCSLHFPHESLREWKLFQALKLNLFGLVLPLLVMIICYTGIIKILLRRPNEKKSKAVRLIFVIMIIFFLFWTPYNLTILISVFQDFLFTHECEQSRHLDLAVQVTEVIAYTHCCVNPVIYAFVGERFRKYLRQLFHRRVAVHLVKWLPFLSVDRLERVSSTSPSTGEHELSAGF
Experimental: as §1

CCR6 = molecular target: T17, CCR6 (Homo sapiens, UniProt P51684); assay: CCR6 Activated Lymphocyte Calcium Mobilization; type: cell-based; conditions: read-out: Potency (IC50), CCR6
T17 construct: endogenous in cells
Experimental: as §1

CXCR1 = molecular target: T18, CXCR1 (Homo sapiens, UniProt P25024); assay: CXCR1 Neutrophil Calcium Mobilization; type: cell-based; conditions: read-out: Potency (IC50), CXCR1
T18 construct: Human monocytes and neutrophils were isolated from healthy volunteers; host or cells: primary human neutrophils
T18 sequence (P25024 whole entry): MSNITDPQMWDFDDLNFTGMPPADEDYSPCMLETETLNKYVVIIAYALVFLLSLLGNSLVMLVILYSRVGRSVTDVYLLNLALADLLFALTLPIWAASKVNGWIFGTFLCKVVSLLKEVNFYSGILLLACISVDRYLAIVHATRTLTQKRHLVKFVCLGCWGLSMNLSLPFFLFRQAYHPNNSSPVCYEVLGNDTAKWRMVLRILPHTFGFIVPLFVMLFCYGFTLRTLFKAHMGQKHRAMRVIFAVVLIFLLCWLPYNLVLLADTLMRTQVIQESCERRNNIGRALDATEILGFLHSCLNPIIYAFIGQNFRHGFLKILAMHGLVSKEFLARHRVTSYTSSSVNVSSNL
Experimental: as §1

CXCR5 = molecular target: T19, CXCR5 (Homo sapiens, UniProt P32302); assay: Baf3-CXCR5 Calcium Mobilization; type: cell-based; conditions: read-out: Potency (IC50), CXCR5
T19 construct: expressed in transfected cells; host or cells: Baf3
T19 sequence (P32302 whole entry): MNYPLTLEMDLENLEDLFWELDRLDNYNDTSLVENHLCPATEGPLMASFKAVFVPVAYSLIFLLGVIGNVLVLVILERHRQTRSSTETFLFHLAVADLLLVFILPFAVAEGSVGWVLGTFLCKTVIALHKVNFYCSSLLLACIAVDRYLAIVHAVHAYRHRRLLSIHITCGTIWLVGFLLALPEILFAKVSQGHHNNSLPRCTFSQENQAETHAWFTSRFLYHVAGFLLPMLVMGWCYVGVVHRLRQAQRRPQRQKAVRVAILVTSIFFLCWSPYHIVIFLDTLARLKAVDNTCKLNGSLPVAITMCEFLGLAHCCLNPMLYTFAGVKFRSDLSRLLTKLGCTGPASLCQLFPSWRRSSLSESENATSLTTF
Experimental: as §1

[6] = test system: kidneys of 5/6 nephrectomized mice; assay: Histological analysis of kidneys from the 5/6 nephrectomy model; type: in vivo
Experimental: as §2, with “Sparsentan, the dual-acting receptor antagonist for endothelin (A type) and angiotensin II receptors (Type 1) (Murugesan et al, 2005) was synthesized at ChemoCentryx and was dosed orally twice daily at 90 mg/kg formulated in 1% HPMC.” left out
The kidneys were collected, fixed in formalin, embedded in paraffin, and cut into 5-μm-thick sections. […] Glomerular hypertrophy, mesangial expansion, glomerular sclerosis, and tubular structure were determined by examination of sections by an observer blinded to the treatment groups.
Fixed kidney sections were obtained from 5/6 nephrectomized mice for pathology. The sections were stained and evaluated to determine whether the Compound 1-mediated improvements in renal function were associated with anatomical changes.

[7] = 5/6 nephrectomy model (Table 3), Week 1, Compound 1 90 mg/kg, RAAS Blocker 5 mg/kg
[8] = 5/6 nephrectomy model (Table 3), Week 2, Compound 1 90 mg/kg, RAAS Blocker 5 mg/kg
[9] = 5/6 nephrectomy model (Table 3), Week 3, Compound 1 90 mg/kg, RAAS Blocker 5 mg/kg
[10] = 5/6 nephrectomy model, comparison with ET1/AT2 dual inhibitor (Table 4), Week 1
[11] = 5/6 nephrectomy model, comparison with ET1/AT2 dual inhibitor (Table 4), Week 2
[12] = 5/6 nephrectomy model, comparison with ET1/AT2 dual inhibitor (Table 4), Week 4

T1 sequence (P51686 whole entry): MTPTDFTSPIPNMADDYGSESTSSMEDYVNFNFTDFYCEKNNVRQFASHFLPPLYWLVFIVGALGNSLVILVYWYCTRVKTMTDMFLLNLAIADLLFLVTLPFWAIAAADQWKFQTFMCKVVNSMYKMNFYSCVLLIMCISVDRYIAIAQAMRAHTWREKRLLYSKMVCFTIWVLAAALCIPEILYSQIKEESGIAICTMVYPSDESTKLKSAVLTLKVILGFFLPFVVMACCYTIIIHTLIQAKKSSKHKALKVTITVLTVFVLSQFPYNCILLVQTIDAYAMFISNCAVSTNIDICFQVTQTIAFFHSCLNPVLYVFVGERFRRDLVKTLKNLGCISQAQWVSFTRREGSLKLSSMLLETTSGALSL

## Cc1cnc(C(=O)c2ccnc3[nH]ccc23)c(NS(=O)(=O)c2ccc(Cl)c(C(F)(F)F)c2)c1 [Compound 1]
CCR9
  IC50: > 10 µM
CXCR2
  IC50: > 10 µM
CCR2 [1]
  IC50: 0.0005 µM
CCR8
  IC50: > 10 µM
CCR7
  IC50: > 10 µM
[2]; Week 1
  UAER: 26.15, p = 0.06 mg/day
[2]; Week 2
  UAER: 24.19, p = 0.032 mg/day
[2]; Adriamycin treated mice
  UAER, in words: significant reduction
CCR2 [3]
  IC50: 0.27 µM
CXCR3
  IC50: > 10 µM
CCR10
  IC50: > 10 µM
CXCR7
  IC50: > 10 µM
CXCR6
  IC50: > 10 µM
[4]
  concentration at 24 h: ~3.5 µM
C5aR
  IC50: > 10 µM
CCR3
  IC50: > 10 µM
CCR4
  IC50: > 10 µM
[5]
  UACR reduction vs vehicle: 64.8%
[5]; [7]
  UAER: 15.68, p = 0.30 mg/day
[5]; [8]
  UAER: 6.72, p = 0.07 mg/day
[5]; [9]
  UAER: 11.75, p = 0.001 mg/day
[5]; [10]
  UAER: 7.1, p = 0.07 mg/day
[5]; [11]
  UAER: 11.0, p = 0.1 mg/day
[5]; [12]
  UAER: 2.8, p = 0.02 mg/day
[5]; 5/6 nephrectomy model, four-week study
  UACR, in words: markedly reduced
[5]; 5/6 nephrectomy model, week four
  reduction in UACR: 57%
[5]; 5/6 nephrectomy model, week three
  reduction in UACR: 72%
[5]; 5/6 nephrectomy model, with respect to vehicle control, four-week time point
  creatinine and BUN, in words: marked reductions
CXCR4
  IC50: > 10 µM
C3aR
  IC50: > 10 µM
CCR1
  IC50: > 10 µM
CCR6
  IC50: > 8 µM
CXCR1
  IC50: > 10 µM
CXCR5
  IC50: > 10 µM
[6]
  kidney histology at 400× magnification (glomeruli), in words: decreased glomerular sclerosis, mesangial expansion, hyaline deposits and tubular collapse
[6]; with respect to vehicle control
  kidney histology at 100× magnification, in words: reductions in tubular dilation and hyaline deposits

## CCCCC1=NC2(CCCC2)C(=O)N1Cc1ccc(-c2ccccc2S(=O)(=O)Nc2noc(C)c2C)c(COCC)c1 [ET1/AT2 Dual Blocker, Sparsentan, reference compound]
[5]
  UACR reduction vs vehicle: 93.5%
[5]; [10]
  UAER: 2.6, p = 0.036 mg/day
[5]; [11]
  UAER: 1.5, p = 0.01 mg/day
[5]; [12]
  UAER: 1.15, p = 0.001 mg/day

## CCOc1nc2cccc(C(=O)O)c2n1Cc1ccc(-c2ccccc2-c2nnn[nH]2)cc1 [RAAS Blocker, Candesartan, reference compound]
[2]; Week 1
  UAER: 39.46, p = 0.16 mg/day
[2]; Week 2
  UAER: 66.87 mg/day
[5]
  UACR reduction vs vehicle: 73.4%
[5]; [7]
  UAER: 8.27, p = 0.03 mg/day
[5]; [8]
  UAER: 3.62, p = 0.03 mg/day
[5]; [9]
  UAER: 3.32, p < 0.0001 mg/day
[5]; [10]
  UAER: 9.4, p = 0.27 mg/day
[5]; [11]
  UAER: 7.7, p = 0.06 mg/day
[5]; [12]
  UAER: 1.7, p = 0.02 mg/day
